Where two headings read alike, the source gives them in different places.
Legend:
WT BCL-2 = target: T1, WT BCL-2 (Homo sapiens, UniProt P10415); test: AlphaScreen displacement binary binding assay, WT BCL-2
T1 construct: BCL-xL (aa 2-212) and BCL-2 (aa 1-207) transformed cells were grown in LB broth; made in house; host or cells: E. coli BL21 (DE3) codon plus
Experimental: To test the binary/ternary binding affinities of compounds to BCL-2/BCL-xL, AlphaScreen displacement binding assay was performed to test the capabilities of testing compounds to displace a Biotin-tagged Bim (Biotin-[…]) or Bad (Biotin-[…]) from BCL-2 or BCL-xL for BCL-2 and BCL-xL binding affinities, respectively. All reagents were diluted in assay buffer of 25 mM HEPES, pH 7.5, 150 mM NaCl, 0.1% BSA, and 0.005% tween 20 prior incubation. To a 96-well PCR plate (VWR, Cat. No. 82006-636) was added 10 μL Biotin-tagged Bim (15 nM for WT or 50 nM for mutants) or Bad (15 nM for WT or 50 nM for mutants), 10 μL series diluted compounds solution (2 or 3 or 4× dilution), and 10 μL self-made 6×His tagged BCL-2 WT or mutants (25 nM WT or 50 nM mutants) or 10 μL self-made BCL-xL WT and mutants (10 nM WT or 50 nM mutants). After incubating at room temperature for 30 min, 5 µL of 160 μg/mL of anti-6×His acceptor beads (PerkinElmer, Cat. No. AL128M) was added and the mixture was incubated at room temperature for 15 min. 5 µL of 160 μg/mL of streptavidin donor beads (PerkinElmer, 6760002) was then added under subdued light and the mixture was incubated at dark for 30 min before being transferred to two adjacent wells (17 µL each) of 384-well white OptiPlate (PerkinElmer, Cat. No. 6008280). The luminescence signal was detected on a Biotek’s Synergy Neo2 multimode plate reader installed with an AphaScreen filter cube. The Ki values of each compounds were calculated by fitting data into the “Binding-competitive, One site-Fit Ki” function in GraphPad Prism (9.2.0) based on concentrations of Biotin–peptide used and experimentally determined Kd values of each 6×His protein &&&and Biotin–Peptide pair.

HeLa cells = test: DIA proteomics in HeLa cells; format: cell-based, human; details: for Off-target effects (two proteomic analyses): TMT (Jurkat) and DIA (HeLa) proteomics
From the text: Given the somewhat inconclusive nature of the TMT results, we made additional efforts to characterize the on-target and off-target effects of our BCL-xL and BCL-2 dual PROTACs using a different proteomics analysis technique, i.e. the Data-Independent Acquisition (DIA) proteomics approach. This approach can avoid the limitation of TMT-labeling deficiency for some proteins/peptides. Specifically, we conducted DIA proteomics profiling using HeLa cells because these cells are primarily dependent on MCL-1 for survival and thus resistant to apoptosis after BCL-xL and BCL-2 degradation. To our delight, we were able to identify over 7200 proteins, including both BCL-xL and BCL-2 (Supplementary Fig. 10d), using this method.
Cells were lysed in buffer containing 5% SDS/50 mM triethylammonium bicarbonate (TEAB) in the presence of protease and phosphatase inhibitors (Halt; Thermo Scientific) and nuclease (Pierce™ Universal Nuclease for Cell Lysis; Thermo Scientific). Aliquots corresponding to 100 µg protein (EZQ™ Protein Quantitation Kit; Thermo Scientific) were reduced with tris(2-carboxyethyl)phosphine hydrochloride (TCEP), alkylated in the dark with iodoacetamide and applied to S-Traps (mini; Protifi) for tryptic digestion (sequencing grade; Promega) in 50 mM triethylammonium bicarbonate (TEAB). Peptides were eluted from the S-Traps with 0.2% formic acid in 50% aqueous acetonitrile and quantified using Pierce™ Quantitative Fluorometric Peptide Assay (Thermo Scientific). Data-independent acquisition mass spectrometry (DIA-MS) was conducted on a Thermo Scientific Orbitrap Exploris 480 mass spectrometer. […] A pool was made of the three control (DMSO) samples, and 2-µg peptide aliquots were analyzed using gas-phase fractionation and 4-m/z windows (30k resolution for precursor and product ion scans) to create an empirically-corrected DIA chromatogram library[72] by searching against a Prosit-generated predicted spectral library[73] based on the UniProt_Human_ref 9606_20220216 protein sequence database (20,588 sequences; 11,394,277 residues). […]

[1] = mean ± s.d., n=3, read-out: Ki (nM, n=3), BCL-2 WT
[2] = response letter, Supplementary Fig. 11, read-out: Ki, binary complex with BCL-2

T1 sequence (P10415 1-207): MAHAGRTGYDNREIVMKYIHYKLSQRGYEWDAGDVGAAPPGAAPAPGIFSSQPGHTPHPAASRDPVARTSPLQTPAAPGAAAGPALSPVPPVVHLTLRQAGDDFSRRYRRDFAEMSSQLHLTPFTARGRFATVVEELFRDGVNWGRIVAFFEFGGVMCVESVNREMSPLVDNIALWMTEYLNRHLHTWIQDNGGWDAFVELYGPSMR

Row | SMILES | Kd (WT BCL-2; Supplementary Fig. 11) | Ki (WT BCL-2; [1]) | Ki (WT BCL-2; [2]) | Off-target effects (two proteomic analyses) (HeLa cells) | Degradation of BCL-xL and BCL-2 by DIA proteomics (comparison) (HeLa cells; HeLa cells)
1 | Cc1ncsc1-c1ccc(C(C)NC(=O)C2CC(O)CN2C(=O)C(NC(=O)CCCCCCC(=O)N2CCN(CC3(C)CCC(c4ccc(Cl)cc4)=C(CN4CCN(c5ccc(C(=O)NS(=O)(=O)c6ccc(NC(CCN7CCOCC7)CSc7ccccc7)c(S(=O)(=O)C(F)(F)F)c6)cc5)CC4)C3)CC2)C(C)(C)C)cc1 (stereo not drawn) [753b] | ~23.4 nM | 24.9 ± 5.4 nM | 23.4 nM | limited off-target effects | –
2 | Cc1ncsc1-c1ccc([C@H](C)NC(=O)[C@@H]2C[C@@H](O)CN2C(=O)[C@@H](NC(=O)CN2CCN(CC(=O)N3CCN(C[C@]4(C)CCC(c5ccc(Cl)cc5)=C(CN5CCN(c6ccc(C(=O)NS(=O)(=O)c7ccc(N[C@H](CCN8C[C@@H]9C[C@H]8CO9)CSc8ccccc8)c(S(=O)(=O)C(F)(F)F)c7)cc6)CC5)C4)CC3)CC2)C(C)(C)C)cc1 [WH244] | ~3.1 nM | 3.5 ± 0.5 nM | 3.1 nM | limited off-target effects | superior efficacy in the degradation of both proteins

Source: article PMC10979003, “Development and crystal structures of a potent second-generation dual degrader of BCL-2 and BCL-xL” (Nature Communications, 2024)
